Drawing on patent publication US8129398B2 (priority 2008, dated 2012), this text covers IC50 for 19 compounds.

For this test, the target named is T1, HIV-integrase (Human immunodeficiency virus type 1 group M subtype B, UniProt P12497).
T1 construct: Recombinant integrase (0.26 ng) was incubated with the beads
Briefly: HIV-Integrase Inhibition Activity (SPA bead integration assay with P33 labeled target DNA). Format: biochemical. The conditions noted are these: recombinant integrase, class symbols; read-out: in vitro activity. The procedure, abridged: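 Biotinylated substrate DNA on streptavidin SPA beads loaded with recombinant integrase (90 min, 37° C), washed, then inhibitor plus 0.1 fmol P33-labeled target DNA added. Reaction stopped with 10 mM EDTA; integration measured as CPM by scintillation, giving IC50 ranks.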
`COCCOC(=O)NC12CCC(CC1)Cn1c2nc(C(=O)NCc2ccc(F)cc2)c(O)c1=O` [Example 259, Carbamic acid, [2-[[[(4-fluorophenyl)methyl]amino-0]carbonyl]-6,7,8,9-tetrahydro-3-hydroxy-4-oxo-7,10-ethanopyrimido[1,2-a]azepin-10(4H)-yl]-, 2-methoxyethyl ester]: the IC50 is < 0.01 µM.

`CC1(C)[C@@H]2CC[C@@]1(C)[C@@H](N)c1nc(C(=O)NCc3ccc(F)cc3)c(O)c(=O)n1C2` [Example 182, (7S,10R,11R)-11-Amino-N-(4-fluorobenzyl)-3-hydroxy-10,12,12-trimethyl-4-oxo-6,7,8,9,10,11-hexahydro-4H-7,10-methanopyrimido[1,2-a]azocine-2-carboxamide]: the IC50 is > 0.1 µM.

For the compound `CN(C)C(=O)C(=O)NC12CCC(CC1)Cn1c2nc(C(=O)NCCCc2ccccc2)c(O)c1=O` [Example 349], the IC50 is < 0.01 µM.

With `CC(=O)N[C@@H]1CCN(C(=O)C(=O)NC23CCC(CC2)Cn2c3nc(C(=O)NCc3ccc(F)cc3)c(O)c2=O)C1` [Example 86, 10-((((3R)-3-(Dcetylamino)-1-pyrrolidinyl)(oxo)acetyl)amino)-N-(4-fluorobenzyl)-3-hydroxy-4-oxo-4,6,7,8,9,10-hexahydro-7,10-ethanopyrimido[1,2-a]azepine-2-carboxamide], the IC50 is < 0.01 µM.

On to `COCCN(C)C(=O)C(=O)N(C)C12CCC(CC1)Cn1c2nc(C(=O)NCc2ccc(F)cc2)c(O)c1=O` [Example 167, N-(2-((4-Fluorobenzyl)carbamoyl)-3-hydroxy-4-oxo-6,7,8,9-tetrahydro-7,10-ethanopyrimido[1,2-a]azepin-10(4H)-yl)-N′-(2-methoxyethyl)-N,N′-dimethylethanediamide], for which the IC50 is < 0.01 µM.

`CNC(=O)NC12CCC(CC1)Cn1c2nc(C(=O)NCc2ccc(F)c(C)c2)c(O)c1=O` [Example 327, 7,10-Ethanopyrimido[1,2-a]azepine-2-carboxamide, N-[(4-fluoro-3-methylphenyl)methyl]-4,6,7,8,9,10-hexahydro-3-hydroxy-10-[[(methylamino)carbonyl]amino]-4-oxo-]: the IC50 is < 0.01 µM.

In the case of `O=C(NC12CCC(CC1)Cn1c2nc(C(=O)NCc2ccc(F)cc2)c(O)c1=O)C(=O)N1CCN(C(=O)c2ccccn2)CC1` [Example 140, N-(4-Fluorobenzyl)-3-hydroxy-4-oxo-10-((oxo(4-(2-pyridinylcarbonyl)-1-piperazinyl)acetyl)amino)-4,6,7,8,9,10-hexahydro-7,10-ethanopyrimido[1,2-a]azepine-2-carboxamide], the IC50 is < 0.01 µM.

Regarding `Cc1cc(CNC(=O)c2nc3n(c(=O)c2O)CC2CCC3(NC(=O)C(C)(C)n3cc(C(=O)N(C)C)nn3)CC2)ccc1F` [Example 287, 7,10-Ethanopyrimido[1,2-a]azepine-2-carboxamide, 10-[[2-[4-[(dimethylamino)carbonyl]-1H-1,2,3-triazol-1-yl]-2-methyl-1-oxopropyl]amino]-N-[(4-fluoro-3-methylphenyl)methyl]-4,6,7,8,9,10-hexahydro-3-hydroxy-4-oxo-], the IC50 was < 0.01 µM.

`CC(=O)N1CCCC1C(=O)NC12CCC(CC1)Cn1c2nc(C(=O)NCc2ccc(F)cc2)c(O)c1=O` (stereo in doubt) [Example 253, 7,10-Ethanopyrimido[1,2-a]azepine-2-carboxamide, 10-[[[(2R)-1-acetyl-2-pyrrolidinyl]carbonyl]amino]-N-[(4-fluorophenyl)methyl]-4,6,7,8,9,10-hexahydro-3-hydroxy-4-oxo-]: the IC50 is 0.01 to 0.1 µM.

With `Cc1ncnn1-c1cc(F)ccc1CNC(=O)c1nc2n(c(=O)c1O)CC1CCC2(NC(=O)C(=O)N(C)C)CC1` [Example 108, N′-(2-((4-Fluoro-2-(5-methyl-1H-1,2,4-triazol-1-yl)benzyl)carbamoyl)-3-hydroxy-4-oxo-6,7,8,9-tetrahydro-7,10-ethanopyrimido[1,2-a]azepin-10(4H)-yl)-N,N-dimethylethanediamide], the IC50 lay in the range of 0.01 to 0.1 µM.

Consider `O=C(NC12CCC(CCn3c1nc(C(=O)NCc1ccc(F)cc1)c(O)c3=O)C2)C(=O)N1CCC(F)CC1` (stereo not shown) [Example 203, 8,1,1-Methano-4H-pyrimido[1,2-a]azocine-2-carboxamide, N-[(4-fluorophenyl)methyl]-11-[[2-(4-fluoro-1-piperidinyl)-1,2-dioxoethyl]amino]-6,7,8,9,10,11-hexahydro-3-hydroxy-4-oxo-], for which the IC50 is < 0.01 µM.

Consider `O=C(NC12CCC(CC1)Cn1c2nc(C(=O)NCc2ccc(F)cc2)c(O)c1=O)C(=O)N1CCN(c2ccccn2)CC1` [Example 78, N-(4-Fluorobenzyl)-3-hydroxy-4-oxo-10-((oxo(4-(2-pyridinyl)-1-piperazinyl)acetyl)amino)-4,6,7,8,9,10-hexahydro-7,10-ethanopyrimido[1,2-a]azepine-2-carboxamide], for which the IC50 is < 0.01 µM.

For `COCCN(C)C(=O)C(=O)NC12CCC(CCn3c1nc(C(=O)NCc1ccc(F)cc1)c(O)c3=O)C2` (stereo not shown) [Example 205, Ethanediamide, N′-[2-[[[(4-fluorophenyl)methyl]amino]carbonyl]-7,8,9,10-tetrahydro-3-hydroxy-4-oxo-8,11-methano-4H-pyrimido[1,2-a]azocin-11(6H)-yl]-N-(2-methoxyethyl)-N-methyl-], the IC50 is < 0.01 µM.

As for `CS(=O)(=O)N1CCN(C(=O)NC23CCC(CC2)Cn2c3nc(C(=O)NCc3ccc(F)cc3)c(O)c2=O)C1=O` [Example 23, N-(4-Fluorobenzyl)-3-hydroxy-10-(((3-(methylsulfonyl)-2-oxo-1-imidazolidinyl)carbonyl)amino)-4-oxo-4,6,7,8,9,10-hexahydro-7,10-ethanopyrimido[1,2-a]azepine-2-carboxamide], the IC50 is < 0.01 µM.

Turning to `Cc1cc(CNC(=O)c2nc3n(c(=O)c2O)CC2CCC3(NC(=O)C3=NNC(=O)CC3)CC2)ccc1F` [Example 305, 7,10-Ethanopyrimido[1,2-a]azepine-2-carboxamide, N-[(4-fluoro-3-methylphenyl)methyl]-4,6,7,8,9,10-hexahydro-3-hydroxy-4-oxo-10-[[(1,4,5,6-tetrahydro-6-oxo-3-pyridazinyl)carbonyl]amino]-], the IC50 was < 0.01 µM.

For the compound `Cc1ccc(CNC(=O)c2nc3n(c(=O)c2O)CC2CCC3(NC(=O)C(=O)N(C)C)CC2)o1` [Example 234], the IC50 was < 0.01 µM.

Turning to `CN(C)C(=O)C(=O)OCCNC12CCC(CC1)Cn1c2nc(C(=O)NCc2ccc(F)cc2)c(O)c1=O` [Example 176], the IC50 lay within 0.01 to 0.1 µM.

Consider `CN(C)CCN(C)C(=O)C(=O)NC12CCC(CC1)Cn1c2nc(C(=O)NCc2ccc(F)cc2)c(O)c1=O` [Example 93, N-(2-(Dimethylamino)ethyl)-N′-(2-((4-fluorobenzyl)carbamoyl)-3-hydroxy-4-oxo-6,7,8,9-tetrahydro-7,10-ethanopyrimido[1,2-a]azepin-10(4H)-yl)-N-methylethanediamide], for which the IC50 was < 0.01 µM.

`CC(=O)NC12CCC(Cn3c1nc(C(=O)NCc1ccc(F)cc1)c(O)c3=O)C2` (stereo not shown) [Example 191, 7,10-Methanopyrimido[1,2-a]azepine-2-carboxamide, 10-(acetylamino)-N-[(4-fluorophenyl)methyl]-4,6,7,8,9,10-hexahydro-3-hydroxy-4-oxo-]: the IC50 was < 0.01 µM.
